Our source for the LogP values is patent US8226966B2, “Fungicide N-6-membered fused (hetero) aryl-methylene-N-cycloalkyl carboxamide derivatives” (Bayer Cropscience AG, priority 2007, dated 2012).

In general, LogP refers to the decadic logarithm of the partition coefficient of the neutral form, usually between octanol and water. The low end stands for lower lipophilicity, the high end for higher lipophilicity.

One data set can be described thus: logP by HPLC on reversed-phase column (C 18), EEC Directive 79/831 Annex V.A8. It is filed as physicochemical. The settings on record: 40° C., 0.1% aqueous formic acid and acetonitrile, linear gradient 10% to 90% acetonitrile. The method, then: In the following table, the logP values were determined in accordance with EEC Directive 79/831 Annex V.A8 by HPLC (High Performance Liquid Chromatography) on a reversed-phase column (C 18), using the method described below: Temperature: 40° C.; Mobile phases: 0.1% aqueous formic acid and acetonitrile linear gradient from 10% acetonitrile to 90% acetonitrile. Calibration was carried out using unbranched alkan-2-ones (comprising 3 to 16 carbon atoms) with known logP values (determination of the logP values by the retention times using linear interpolation between two successive alkanones).
`Cc1nn(C)c(F)c1C(=O)N(Cc1ccc(Br)c2cccnc12)C1CC1` [Example 167]: the LogP is reported as 2.9. The same measure, in the same setting: the value for `COc1ccc2ccc(OC)c(CN(C(=O)c3c(C)nn(C)c3F)C3CC3)c2c1` [Example 222] was 2.96.

The same data set, now with this note: 40° C., 0.1% aqueous formic acid and acetonitrile, linear gradient from 10% to 90% acetonitrile.
Compound `Cc1nn(C)c(F)c1C(=S)N(Cc1ccc2ccccc2c1Br)C1CC1` [Example 25] displayed a LogP of 4.39. On the same count and under the same terms, the figure for `Cn1cc(C(=O)N(Cc2ccc3ccccc3c2Br)C2CC2)c(C(F)F)n1` [Example 26] is 3.68; for `COc1nn(C)cc1C(=O)N(Cc1ccc2ccccc2c1Br)C1CC1` [Example 27] it is 3.24; for `COc1nn(C)cc1C(=S)N(Cc1ccc2ccccc2c1Br)C1CC1` [Example 28] it is 4.25. On the same count and under the same terms, the figure for `Cc1ccc2ccccc2c1CN(C(=O)c1cn(C)nc1C(F)F)C1CC1` [Example 40] is 3.25. The compound `Cc1nn(C)c(F)c1C(=O)N(Cc1ccc(Br)c2ccccc12)C1CC1` [Example 54] displayed a LogP of 3.62. In the case of `Cn1cc(C(=O)N(Cc2ccc(Br)c3ccccc23)C2CC2)c(C(F)F)n1` [Example 55], the lipophilicity (LogP) was found to be 3.69. This LogP and that of the compound before are within 0.2 log units of each other. On the same count and under the same terms, the figure for `Cc1cc(C(=O)N(C2CC2)C(C)c2ccc(Br)c3ccccc23)c(C)o1` (stereo not shown) [Example 60] is 5.2; for `COC(=O)C(c1cccc2ccccc12)N(C(=O)c1c(C)nn(C)c1F)C1CC1` (stereo not shown) [Example 63] it is 2.92; for `COC(=O)C(c1cccc2ccccc12)N(C(=O)c1cn(C)nc1C(F)F)C1CC1` (stereo not shown) [Example 69] it is 3.02. On the same count and under the same terms, the figure for `COc1nn(C)cc1C(=O)N(C1CC1)C(C)c1cccc2ccccc12` (stereo not shown) [Example 75] is 2.86.
